Molecules are shown by their SMILES. Activity calls are given as the source filed them. How the calls were made is not given here. Bounds are passed on as bounds.

Broadly, the IC90 is the point of the concentration-response curve where the effect stands at 90%.

This assay relates to M. tuberculosis wild type plus biotin, growth inhibition. The experiment in a line: growth inhibition of wild-type M. tuberculosis, plus biotin, BioA project, dry powder (AID 743349).
Turning to `COC(=O)CCCCCCC(=O)N1CC[C@@H]2[C@@H](CO)N(C)c3ccc(-c4cccc(F)c4)cc3[C@@H]21`, the IC90 was > 50 µM (inactive). With `CC(=O)c1ccc(N2CCN(C(=O)c3ccc4c(c3)OCO4)CC2)cc1` the figure was > 50 µM (inactive). For the compound `CCC(=O)N1CC[C@@H]2[C@@H](CO)N(C)c3ccc(-c4ccc(F)cc4)cc3[C@@H]21`, the IC90 was > 50 µM (inactive). With `CN1c2ccc(-c3cccc(F)c3)cc2[C@H]2[C@H](CCN2C(=O)CCCCCCC(=O)O)[C@H]1CO` the figure was > 50 µM (inactive); with `CC(=O)c1ccc(N2CCN(C(=O)c3ccc4c(c3)OCO4)[C@H](C)C2)cc1`, > 50 µM (inactive). With `CN1c2ccc(-c3ccc(F)cc3)cc2[C@H]2[C@H](CCN2C(=O)Cc2cccnc2)[C@H]1CO` the figure was > 50 µM (inactive); with `CN1c2ccc(-c3cccc(F)c3)cc2[C@@H]2[C@@H](CCN2C(=O)c2ccc3c(c2)OCO3)[C@H]1CO`, > 50 µM (inactive). As for `COc1ccc(NC(=O)N2CC[C@@H]3[C@@H](CO)N(C)c4ccc(-c5cccc(F)c5)cc4[C@@H]32)cc1`, the IC90 was > 50 µM (inactive). On to `CN1c2ccc(-c3cccc(F)c3)cc2[C@H]2[C@H](CCN2C(=O)c2ccc3c(c2)OCO3)[C@@H]1CO`, for which the IC90 is > 50 µM (inactive).

Turning to `CN1c2ccc(-c3ccc(F)cc3)cc2[C@H]2[C@H](CCN2C(=O)Cc2ccccn2)[C@H]1CO`, the IC90 is > 50 µM (inactive).

`CCCNC(=O)N1CC[C@@H]2[C@@H](CO)N(C)c3ccc(-c4ccc(F)cc4)cc3[C@@H]21`: the IC90 was > 50 µM (inactive).

For `CN1c2ccc(-c3cccc(F)c3)cc2[C@H]2[C@H](CCN2C(=O)Cc2cccnc2)[C@H]1CO`, the IC90 is > 50 µM (inactive). For the compound `CC(=O)c1ccc(N2CCN(C(=O)c3ccccc3F)CC2)cc1`, the IC90 is > 50 µM (inactive). With `COCC(=O)N1CC[C@@H]2[C@@H](CO)N(C)c3ccc(-c4cccc(F)c4)cc3[C@@H]21` the figure was > 50 µM (inactive). With `CC(=O)c1ccc(N2CCN(C(=O)c3ccccc3Cl)CC2)cc1`, the IC90 was > 50 µM (inactive). With `CC(C)NC(=O)N1CC[C@@H]2[C@@H](CO)N(C)c3ccc(-c4cccc(F)c4)cc3[C@@H]21` the figure was > 50 µM (inactive); with `CCCCCCCC(=O)N1CC[C@@H]2[C@@H](CO)N(C)c3ccc(-c4cccc(F)c4)cc3[C@@H]21`, > 50 µM (inactive); with `CN1c2ccc(-c3ccc(F)cc3)cc2[C@H]2[C@H](CCN2C(=O)Nc2ccc(F)cc2)[C@H]1CO`, > 50 µM (inactive). Turning to `CN1c2ccc(-c3cccc(F)c3)cc2[C@@H]2[C@@H](CCN2C(=O)c2ccc3c(c2)OCO3)[C@@H]1CO`, the IC90 was > 50 µM (inactive).

Consider `CN(C)C(=O)c1ccc(N2CCN(C(=O)c3ccc4c(c3)OCO4)CC2)cc1`, for which the IC90 is > 50 µM (inactive).

With `COc1ccccc1NC(=O)N1CC[C@@H]2[C@@H](CO)N(C)c3ccc(-c4ccc(F)cc4)cc3[C@@H]21`, the IC90 was > 50 µM (inactive). With `CC(C)NC(=O)N1CC[C@@H]2[C@@H](CO)N(C)c3ccc(-c4ccc(F)cc4)cc3[C@@H]21` the figure was > 50 µM (inactive); with `COc1ccccc1C(=O)N1CCN(c2ccc(C(C)=O)cc2)CC1`, > 50 µM (inactive); with `CN1c2ccc(-c3cccc(F)c3)cc2[C@H]2[C@H](CCN2C(=O)CCCCCCN)[C@H]1CO`, > 50 µM (inactive).

As for `COc1cccc(NC(=O)N2CC[C@@H]3[C@@H](CO)N(C)c4ccc(-c5cccc(F)c5)cc4[C@@H]32)c1`, the IC90 was > 50 µM (inactive). With `CNS(=O)(=O)c1ccc(N2CCN(C(=O)c3ccc4c(c3)OCO4)CC2)cc1` the figure was > 50 µM (inactive); with `CC(=O)c1ccc(NCCNC(=O)c2ccc3c(c2)OCO3)cc1`, > 50 µM (inactive). With `CN1c2ccc(-c3cccc(F)c3)cc2[C@H]2[C@H](CCN2C(=O)Nc2ccccc2F)[C@H]1CO` the figure was > 50 µM (inactive).

With `COc1ccccc1NC(=O)N1CC[C@@H]2[C@@H](CO)N(C)c3ccc(-c4cccc(F)c4)cc3[C@@H]21`, the IC90 was > 50 µM (inactive). With `CN1c2ccc(-c3cccc(F)c3)cc2[C@H]2[C@H](CCN2C(=O)Cc2ccccc2)[C@H]1CO` the figure was > 50 µM (inactive); with `COc1ccc(NC(=O)N2CC[C@@H]3[C@@H](CO)N(C)c4ccc(-c5ccc(F)cc5)cc4[C@@H]32)cc1`, > 50 µM (inactive). With `CC(=O)c1ccc(N2CC3(CN(C(=O)c4ccc5c(c4)OCO5)C3)C2)cc1` the figure was > 50 µM (inactive); with `CNC(=O)c1ccc(N2CCN(C(=O)c3ccc4c(c3)OCO4)CC2)cc1`, > 50 µM (inactive); with `CN1c2ccc(-c3ccc(F)cc3)cc2[C@H]2[C@H](CCN2C(=O)Nc2cc(F)ccc2F)[C@H]1CO`, > 50 µM (inactive).

The record behind these values is PubChem BioAssay AID743349 (Broad Institute, 2014).
